Measured values reported in PubChem BioAssay AID463229 (Broad Institute, 2010).
The source made the active and inactive calls.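 The calls were made as follows: active = compounds raising the signal whose fitted half-maximal concentration is at or below their top tested dose (cut at about 25 µM in these data); inconclusive = flat fit at 30 to 70% activity, or a poor fit; inactive = the rest.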

Each compound was assayed on INS-1E rat beta cells, no cytokines, CellTiter-Glo ATP, 48 h (assay: ATP level change in INS-1E without cytokines, dose response, counter-screen for beta-cell apoptosis protection project, INS-1E rat cells, ATP luminescence, cherry pick (AID 463229)).

SMILES | AC50
CCCCC(=O)NC(c1ccc(Cl)cc1Cl)c1ccc2cccnc2c1O (stereo not drawn) | 2.22 µM
O=C(N/N=C/c1ccc(O)c2ncccc12)c1cccc(Br)c1 | 3.05 µM
COc1ccc(S(=O)(=O)Nc2ccc3oc(C)c(C(C)=O)c3c2)cc1 | 12.3 µM
CCOc1ccc(OCc2ccc(C(=O)N/N=C(\C)c3ccccn3)cc2)cc1 | 5.09 µM
O=C(NCC1COc2ccccc2O1)c1cccc(S(=O)(=O)NCc2ccccc2)c1 (stereo not drawn) | 8.8 µM
CNC(=O)c1cc(Oc2ccc(NC(=O)Nc3ccc(Cl)c(C(F)(F)F)c3)cc2)ccn1 | 7.39 µM
CC1CCC(C(C)C)C(OC(=O)Cn2c(COc3ccccc3)[n+](C)c3ccccc32)C1 (stereo not drawn) | 7.08 µM
CC(C)c1ccccc1-n1c(SCC(=O)N2CCc3ccccc3C2)nc2ccccc2c1=O | 2.42 µM
Cc1ccccc1OCc1n(CC(=O)OC2CC(C)CCC2C(C)C)c2ccccc2[n+]1C (stereo not drawn) | 4.05 µM
COc1cc(CSc2nnnn2-c2ccc(C)cc2)cc(OC)c1OC | 4.46 µM
COc1ccc(C)cc1Nc1n[n+](-c2ccccc2)c(-c2c(Cl)cccc2Cl)s1 | 4.15 µM
CC(C)Nc1ccc(Nc2ccccc2)cc1 | 7.5 µM
Cc1cc(C)c(S(=O)(=O)/N=C2\C=C(Nc3ccc(C(=O)O)cc3)C(=O)c3ccccc32)c(C)c1 | 5.39 µM
C/C(=N\NC(=O)c1cc(-c2cccs2)nc2ccccc12)c1ccccn1 | 1.92 µM
Oc1ccc(CNc2ccccc2)c2cccnc12 | 22.8 µM
O=c1cc(N2CCN(c3cccc(Cl)c3)CC2)[nH]c(=O)n1C1CCCCC1 | 1.66 µM
O=C(NC(Nc1nc2ccc([N+](=O)[O-])cc2s1)(C(F)(F)F)C(F)(F)F)c1ccccc1 | 0.367 µM
CCN(CC)c1ccc(/C=N/NC(=O)c2cccc(S(=O)(=O)N3CCOCC3)c2)c(O)c1 | 2.12 µM
CC(C)c1ccc2c(c1)C(N1CCNCC1)Cc1ccc(F)cc1S2 (stereo not drawn) | 14.6 µM
Cc1ccc(C)n1-c1ccc(C(=O)Nc2ccccc2)cc1 | > 26 µM (inactive)
O=C(CNc1cccc2ccccc12)N/N=C/c1ccc([N+](=O)[O-])o1 | 11.5 µM
COc1ccc(S(=O)(=O)N(C(=O)c2ccco2)c2cc3sc(=O)oc3c3ccccc23)cc1 | 14.5 µM
CC(=O)N(C)C1=C(N2CCOCC2)C(=O)c2ccccc2C1=O | 7.91 µM
Cc1cc[n+](C(C)C(=O)c2ccc(-c3ccccc3)cc2)cc1 (stereo not drawn) | 3.81 µM
O=C(N/N=C/c1ccc([N+](=O)[O-])o1)c1cc2ccccc2o1 | 6.22 µM
COc1cccc(/C=N/NC(=O)CN2CC(c3ccccc3)CC2=O)c1O (stereo not drawn) | 18.7 µM
Nc1nonc1-n1nnc(C(=O)N/N=C/c2ccccc2O)c1CN1CCCC1 | 22.9 µM

SMILES | AC50
CC(=O)OC1COC(OC2C(O)C(C)OC(OC3C(OC4CCC5(C)C(CCC6(C)C5CC=C5C7CC(C)(C)CCC7(C(=O)O)CCC56C)C4(C)CO)OCC(O)C3O)C2O)C(O)C1OC(C)=O (stereo not drawn) | 7.09 µM
CC[C@H](C)Cc1cn([C@@H](CCCCNC(=O)OC(C)(C)C)C(=O)NCCCCCCCCCCC(=O)N2CCN(C(=O)OC(C)(C)C)CC2)nn1 | 20.2 µM
Cn1c(=O)[nH]c(=O)c2c1nc([N+](=O)[O-])n2Cc1ccccc1 | 6.67 µM
Cc1cc(N2CCC(C)CC2)nc(NCc2ccccc2)n1 | 12.3 µM
Cc1ccc(-c2cc(-c3ccccc3)cc(-c3ccccc3)[n+]2-c2ccccc2)cc1 | 2.08 µM
N#Cc1c2ccc([N+](=O)[O-])cc2[n+]([O-])n1-c1ccccc1 | 5.32 µM
O=C(c1ccc2c(c1)[nH]c(=S)n1c3ccccc3nc21)N1CCN(c2cccc(Cl)c2)CC1 | 14.5 µM
CCCN(CCC)C(=O)c1cc([N+](=O)[O-])cc2c1-c1ccc([N+](=O)[O-])cc1C2=C(C#N)C#N | 14.2 µM
Cn1nc(C(C)(C)C)cc1C(=O)NCc1cc(F)cc2c1OCOC2 | 5.86 µM
COC1=C(Nc2ccccc2)C(=O)c2ccccc2C1=O | 17.4 µM
Cc1cc(N/N=C/c2cccc(Cl)c2)nc(-n2nc(C)cc2C)n1 | 16.4 µM
CN1c2ccccc2N(C)C1(C)c1ccccc1 | 0.604 µM
O=S(=O)(c1cccs1)N1CCN(CC(O)COc2cc(Cl)ccc2Cl)CC1 (stereo not drawn) | 13.3 µM
O=C(N=Nc1c(O)n(Cc2ccccc2)c2ccccc12)c1cc2ccccc2cc1O | 8.07 µM
O=C(CN1CCCc2ccccc21)N/N=C/c1ccccc1O | 15 µM
O=C(CCl)N(c1ccccc1)C1CCCCC1 | 5.56 µM
Cc1ccc(-c2c[n+](Cc3ccc(Cl)cc3)c3n2CCC3)cc1 | 7.79 µM
CCC[N+]1(CC#CCC(c2ccccc2)c2ccccc2)CCCCC1 | 2.03 µM
Nc1nonc1-n1nnc(C(=O)N/N=C/c2cc(Br)ccc2O)c1CSC1=NCCS1 | 3.58 µM
CC(=O)NC(c1cc(Cl)c2cccnc2c1O)C(C)C (stereo not drawn) | 8.18 µM
CCc1ccc2c(c1)C1(C(=O)N2)N2CCCC2C(C(=O)c2ccc3ccccc3c2)C12C(=O)Nc1ccccc12 (stereo not drawn) | 7.76 µM
CCCCCCCCCCOC(=O)Cn1c(COc2cccc(OC)c2)[n+](C)c2ccccc21 | 3.47 µM
Cc1ccc(-c2nc(N/N=C/c3cccnc3)c3ccccc3n2)cc1 | 9.02 µM
O=[N+]([O-])c1ccc(O)c(/C=N/NC(=S)Nc2ccc(Cl)cc2Cl)c1 | 17.9 µM
Cc1cc(S(=O)(=O)NCc2ccncc2)c(C)cc1Br | 6.19 µM
O=C(NCC#CCSc1nnc(-c2cccc3ccccc23)o1)c1cccs1 | 1.9 µM
